Reference: PMC12471299, “Secondary Metabolites of the Marine Sponge-Derived Fungus Aspergillus subramanianii 1901NT-1.40.2 and Their Antimicrobial and Anticancer Activities” (Marine Drugs, 2025)
Read-outs that look alike come from different tables or passages of the source.

Experiments:
[1] = Cell viability assay (MTT); assay type: cell-based, rat; conditions: rat, H9c2 cardiomyocytes, read-out: Cytotoxicity IC50
Description: (§1) Rat cardiomyocyte H9c2 cells were kindly provided by Prof. Dr. Gunhild von Amsberg from the Martini-Klinik Prostate Cancer Center, University Hospital Hamburg-Eppendorf, Hamburg, Germany. The human HaCaT keratinocyte cell line was kindly provided by Prof. N. Fusenig (Cancer Research Centre, Heidelberg, Germany). Non-cancerous human breast epithelial MCF-10A cells were kindly provided by Dr. Irina Zhitnyak (N. N. Blokhin National Medical Research Center of Oncology, Moscow, Russia). Human breast cancer MCF-7 HTB-22 and MDA-MB-231 cells were obtained from the ATTC (Manassas, VA, USA).
(§2) H9c2 and HaCaT cells were cultured in DMEM with 10% fetal bovine serum and 1% penicillin/streptomycin (BioloT, St. Petersburg, Russia). MCF-7 and MDA-MB-231 cells were cultured in MEM (BioloT, St. Petersburg, Russia) with 10% fetal bovine serum (FBS) and 1% penicillin/streptomycin (BioloT, St. Petersburg, Russia). MCF 10A cells were cultured in DMEM F12 medium (BioloT, St. Petersburg, Russia) supplemented with 20% FBS, 20 ng/mL hrEGF (Sci-Store, Moscow, Russia), and 1% penicillin/streptomycin (BioloT, St. Petersburg, Russia). All cells were cultured at 37 °C in a humidified atmosphere containing 5% CO2.
(§3) H9c2 cells were seeded at a concentration of 3 × 10^3 cells/well. MCF-10A, MCF-7, and MDA-MB-231 cells were seeded at 5 × 10^3 cells/well, and HaCaT cells were seeded at 1 × 10^4 cells/well. The experiments were initiated after 24 h.
(§4) Compounds at concentrations up to 100 µM were added to the wells for 24h or 48 h, and the viability of the cells was measured using an MTT (3-(4,5-dimethylthiazol-2-yl)-2,5-diphenyltetrazolium bromide) assay, which was performed according to the manufacturer’s instructions (Sigma-Aldrich, Munich, Germany). […] DMSO was used as a control. The results are presented as percentages of the control data.

H9c2 cardiomyocytes = assay: Cell viability assay (MTT); assay type: cell-based, rat
Description: as §1, §2, §3, §4

[2] = tested on: Staphylococcus aureus ATCC 21027; assay: Biofilm formation assay (MTT); assay type: cell-based
Description: (§5) The Gram-positive bacterial Staphylococcus aureus ATCC 21027, Gram-negative bacterial Escherichia coli VKPM (B-7935), and yeast-like fungal Candida albicans KMM 455 strains were fermented on solid medium Mueller Hinton broth with agar (16.0 g/L) in a Petri dish at 37 °C for 24 h. The antimicrobial activity of the compound was tested at concentrations ranging from 100 µM and lower. The effect of the compound on bacterial growth was estimated as described by. Gentamicin and amphotericin B were used as positive controls against S. aureus, E. coli, and C. albicans, and a 1% dimethyl sulfoxide (DMSO) solution in PBS was used as a negative control. The optical density of the bacterial suspension after 18 h was measured at λ = 620 nm. The effect of the compound on biofilm formation for 18 h was tested using MTT reagent (Sigma-Aldrich, St. Louis, MO, USA) in accordance with. The optical density of the obtained solution was measured at λ = 570 nm. A Multiskan FS spectrophotometer (Thermo Scientific Inc., Beverly, MA, USA) was used for both assays. The results were calculated as percentages of the control data and presented as minimal concentrations reduced by 50% of growth or biofilm formation (MIC50).

Candida albicans KMM 455 [3] = assay: Biofilm formation assay (MTT); assay type: cell-based
Description: as §5

[4] = tested on: Escherichia coli VKPM (B-7935); assay: Biofilm formation assay (MTT); assay type: cell-based
Description: as §5

[5] = tested on: Staphylococcus aureus ATCC 21027; assay: Antimicrobial assay, growth inhibition (optical density); assay type: cell-based
Description: as §5

Candida albicans KMM 455 [6] = assay: as above; assay type: cell-based
Description: as §5

[7] = tested on: Escherichia coli VKPM (B-7935); assay: as above; assay type: cell-based
Description: as §5

[8] = Cell viability assay (MTT); assay type: cell-based, human; conditions: human, read-out: Cytotoxicity IC50
Description: as §1, §2, §3, §4

[9] = tested on: MDA-MB-231 breast cancer cells; assay: Cell viability assay (MTT); assay type: cell-based, human
Description: as §1, §2, §3, §4

[10] = tested on: MCF-7 breast cancer cells; assay: Cell viability assay (MTT); assay type: cell-based, human
Description: as §1, §2, §3, §4

HaCaT keratinocytes = assay: Cell viability assay (MTT); assay type: cell-based, human
Description: as §1, §2, §3, §4

[11] = tested on: MCF-10A breast epithelial cells; assay: Cell viability assay (MTT); assay type: cell-based, human; conditions: MCF10A
Description: as §1, §2, §3, §4

For `Cc1c(C)c(O)c2c(c1C)C(C)C(=O)OC2=O` (stereo not shown) [Compound 4, sclerin], the IC50 at 24 h ([1]; H9c2, 24 h) was over 100 µM, the IC50 at 48 h ([1]; H9c2, 48 h) was 57.2 ± 2.4 µM and the cell viability (H9c2 cardiomyocytes; H9c2, 24 h, 1.0 µM) was 101.9 ± 5.8 % of control. The cell viability (H9c2 cardiomyocytes; H9c2, 24 h, 10.0 µM) was 101.9 ± 6.1 % of control, the cell viability (H9c2 cardiomyocytes; H9c2, 24 h, 100.0 µM) was 73.5 ± 4.4 % of control and the cell viability (H9c2 cardiomyocytes; H9c2, 48 h, 1.0 µM) was 101.4 ± 5.6 % of control. For the same molecule, the cell viability (H9c2 cardiomyocytes; H9c2, 48 h, 10.0 µM) was 102.6 ± 7.4 % of control, the cell viability (H9c2 cardiomyocytes; H9c2, 48 h, 100.0 µM) was 56.2 ± 0.9 % of control and the “Biofilm formation, MIC50” value ([2]; S. aureus, 18 h) was over 100 µM. For the same molecule, the “effect on S. aureus biofilm formation” value ([2]; at / up to 100 µM) was “did not affect”, the “Biofilm formation, MIC50” value (Candida albicans KMM 455 [3]; C. albicans, 18 h) was over 100 µM and the “prevention of C. albicans biofilm formation” value (Candida albicans KMM 455 [3]; at 100 µM) was 20.22 ± 5.24%. For the same molecule, the “Biofilm formation, MIC50” value ([4]; E. coli, 18 h) was over 100 µM, the “effect on E. coli biofilm formation” value ([4]; at / up to 100 µM) was “did not affect” and the MIC50 ([5]; Staphylococcus aureus, ATCC21027, 18 h, S. aureus, 18 h) was over 100 µM. For the same molecule, the “effect on S. aureus growth” value ([5]; at / up to 100 µM) was “did not affect”, the MIC50 (Candida albicans KMM 455 [6]; Candida albicans, KMM455, 18 h, C. albicans, 18 h) was over 100 µM and the “effect on C. albicans growth” value (Candida albicans KMM 455 [6]; at / up to 100 µM) was “did not affect”. For the same molecule, the MIC50 ([7]; Escherichia coli, 18 h, E. coli) was over 100 µM, the “effect on E. coli growth” value ([7]; at / up to 100 µM) was “did not affect” and the IC50 at 24 h ([8]; HaCaT keratinocytes, 24 h) was at least 100 µM. The IC50 at 48 h ([8]; HaCaT keratinocytes, 48 h) was at least 100 µM, the IC50 at 24 h ([8]; MCF-7 breast cancer cells, MCF-7, 24 h) was over 100 µM and the IC50 at 48 h ([8]; MCF-7 breast cancer cells, MCF-7, 48 h) was over 100 µM. The IC50 at 24 h ([8]; MCF-10A breast epithelial cells, MCF10A, 24 h) was 93.4 ± 3.5 µM, the IC50 at 48 h ([8]; MCF-10A breast epithelial cells, MCF10A, 48 h) was over 100 µM and the IC50 at 24 h ([8]; MDA-MB-231 breast cancer cells, MDA-MB-231, 24 h) was over 100 µM. For the same molecule, the IC50 at 48 h ([8]; MDA-MB-231 breast cancer cells, MDA-MB-231, 48 h) was 94.1 ± 3.2 µM, the cell viability ([9]; MDA-MB-231, 24 h, 1.0 µM) was 94.8 ± 4.2 % of control and the cell viability ([9]; MDA-MB-231, 24 h, 10.0 µM) was 102.7 ± 4.9 % of control. The cell viability ([9]; MDA-MB-231, 24 h, 100.0 µM) was 63.1 ±1.6 % of control, the cell viability ([9]; MDA-MB-231, 48 h, 1.0 µM) was 94.3 ± 3.9 % of control and the cell viability ([9]; MDA-MB-231, 48 h, 10.0 µM) was 91.8 ± 7.5 % of control. For the same molecule, the cell viability ([9]; MDA-MB-231, 48 h, 100.0 µM) was 47.1 ± 6.2 % of control, the cell viability ([10]; MCF-7, 24 h, 1.0 µM) was 104.3 ± 4.6 % of control and the cell viability ([10]; MCF-7, 24 h, 10.0 µM) was 103.4 ± 5.4 % of control. For the same molecule, the cell viability ([10]; MCF-7, 24 h, 100.0 µM) was 68.3 ± 4.5 % of control, the cell viability ([10]; MCF-7, 48 h, 1.0 µM) was 88.5 ± 4.7 % of control and the cell viability ([10]; MCF-7, 48 h, 10.0 µM) was 95.9 ± 3.5 % of control. For the same molecule, the cell viability ([10]; MCF-7, 48 h, 100.0 µM) was 74.1 ± 4.5 % of control, the cell viability (HaCaT keratinocytes; 24 h, 1.0 µM) was 100.2 ± 6.6 % of control and the cell viability (HaCaT keratinocytes; 24 h, 10.0 µM) was 94.7 ± 5.0 % of control. The cell viability (HaCaT keratinocytes; 24 h, 100.0 µM) was 49.5 ± 6.0 % of control, the cell viability (HaCaT keratinocytes; 48 h, 1.0 µM) was 96.4 ± 1.4 % of control and the cell viability (HaCaT keratinocytes; 48 h, 10.0 µM) was 72.1 ± 11.1 % of control. The cell viability (HaCaT keratinocytes; 48 h, 100.0 µM) was 51.5 ± 2.1 % of control, the cell viability ([11]; 24 h, 1.0 µM) was 90.8 ± 7.8 % of control and the cell viability ([11]; 24 h, 10.0 µM) was 88.6 ± 5.2 % of control. For the same molecule, the cell viability ([11]; 24 h, 100.0 µM) was 47.0 ± 3.2 % of control, the cell viability ([11]; 48 h, 1.0 µM) was 98.0 ± 4.0 % of control and the cell viability ([11]; 48 h, 10.0 µM) was 96.8 ± 2.1 % of control. The cell viability ([11]; 48 h, 100.0 µM) was 73.5 ± 1.1 % of control.
